From ChEMBL document CHEMBL1145302, “Synthesis and antibacterial activity of C6-carbazate ketolides” (2006)
Converted amounts (≈) assume the structure as drawn.

What was measured:
Format in all cases: functional
Haemophilus influenzae = test: Antibacterial activity against telithromycin-susceptible Haemophilus influenzae ATCC 49766
[1] = tested on: Staphylococcus haemolyticus; test: Antibacterial activity against erythromycin resistant Staphylococcus haemolyticus OC3882 containing erm(C)
Staphylococcus aureus [2] = test: Antibacterial activity against erythromycin-susceptible Staphylococcus aureus Smith OC4172 in presence of 50% mouse serum
Staphylococcus aureus [3] = test: Antibacterial activity against erythromycin-susceptible Staphylococcus aureus Smith OC4172
Streptococcus pneumoniae [4] = test: Antibacterial activity against erythromycin-resistant Streptococcus pneumoniae OC4051 containing erm(B)
Streptococcus pneumoniae [5] = test: Antibacterial activity against erythromycin-susceptible Streptococcus pneumoniae OC9132
Streptococcus pneumoniae [6] = test: Antibacterial activity against erythromycin-resistant Streptococcus pneumoniae OC4421 containing mef(A)
Staphylococcus aureus [7] = test: Antibacterial activity against Staphylococcus aureus Smith infected in orally dosed Swiss Webster mouse septicemia model; settings: po
Staphylococcus aureus [8] = test: Antibacterial activity against Staphylococcus aureus Smith infected in sc dosed Swiss Webster mouse septicemia model

| Structure (SMILES) | MIC (Haemophilus influenzae) [µg/mL] | MIC [1] [µg/mL] | MIC (Staphylococcus aureus [2]) [µg/mL] | MIC (Staphylococcus aureus [3]) [µg/mL] | MIC (Streptococcus pneumoniae [4]) [µg/mL] | MIC (Streptococcus pneumoniae [5]) [µg/mL] | MIC (Streptococcus pneumoniae [6]) [µg/mL] | ED50 (Staphylococcus aureus [7]) [mg/kg] | ED50 (Staphylococcus aureus [8]) [mg/kg] |
| --- | --- | --- | --- | --- | --- | --- | --- | --- | --- |
| CC[C@H]1OC(=O)[C@H](C)C(=O)[C@H](C)[C@@H](O[C@@H]2O[C@H](C)C[C@H](N(C)C)[C@H]2O)[C@](C)(OC(=O)NNCCc2cnc3ccccc3c2)C[C@@H](C)C(=O)[C@H](C)[C@H]2NC(=O)O[C@@]21C | 0.5 (≈ 0.616 µM) | 0.5 (≈ 0.616 µM) | 1 | 0.5 (≈ 0.616 µM) | 0.06 (≈ 0.0739 µM) | 0.03 (≈ 0.0369 µM) | 0.25 (≈ 0.308 µM) | – | – |
| CC[C@H]1OC(=O)[C@H](C)C(=O)[C@H](C)[C@@H](O[C@@H]2O[C@H](C)C[C@H](N(C)C)[C@H]2O)[C@](C)(OC(=O)N(C)NCCc2ccc(-c3cnccn3)cc2)C[C@@H](C)C(=O)[C@H](C)[C@H]2NC(=O)O[C@@]21C | 8 (≈ 9.38 µM) | 2 (≈ 2.34 µM) | 2 | 0.5 (≈ 0.586 µM) | 0.12 (≈ 0.141 µM) | 0.06 (≈ 0.0703 µM) | 0.5 (≈ 0.586 µM) | – | – |
| CC[C@H]1OC(=O)[C@H](C)C(=O)[C@H](C)[C@@H](O[C@@H]2O[C@H](C)C[C@H](N(C)C)[C@H]2O)[C@](C)(OC(=O)NN(C)CCc2cnc3ccccc3c2)C[C@@H](C)C(=O)[C@H](C)[C@H]2NC(=O)O[C@@]21C | 2 (≈ 2.42 µM) | 8 (≈ 9.69 µM) | 2 | 1 (≈ 1.21 µM) | 0.12 (≈ 0.145 µM) | 0.06 (≈ 0.0726 µM) | 0.5 (≈ 0.605 µM) | – | – |
| CC[C@H]1OC(=O)[C@H](C)C(=O)[C@H](C)[C@@H](O[C@@H]2O[C@H](C)C[C@H](N(C)C)[C@H]2O)[C@](C)(OC(=O)NNCCc2cccc(-c3ncccn3)c2)C[C@@H](C)C(=O)[C@H](C)[C@H]2NC(=O)O[C@@]21C | 2 (≈ 2.38 µM) | 0.25 (≈ 0.298 µM) | 1 | 0.25 (≈ 0.298 µM) | 0.06 (≈ 0.0715 µM) | 0.03 (≈ 0.0358 µM) | 0.25 (≈ 0.298 µM) | > 20 | 4.3 |
| CC[C@H]1OC(=O)[C@H](C)C(=O)[C@H](C)[C@@H](O[C@@H]2O[C@H](C)C[C@H](N(C)C)[C@H]2O)[C@](C)(OC(=O)NN(C)CCc2ccc(-c3cnccn3)cc2)C[C@@H](C)C(=O)[C@H](C)[C@H]2NC(=O)O[C@@]21C | 2 (≈ 2.34 µM) | 0.5 (≈ 0.586 µM) | 0.5 | 0.25 (≈ 0.293 µM) | 0.06 (≈ 0.0703 µM) | 0.03 (≈ 0.0352 µM) | 0.25 (≈ 0.293 µM) | – | – |
| CC[C@H]1OC(=O)[C@H](C)C(=O)[C@H](C)[C@@H](O[C@@H]2O[C@H](C)C[C@H](N(C)C)[C@H]2O)[C@](C)(OC(=O)NN(C)CCCc2ccc(-c3ncccn3)cc2)C[C@@H](C)C(=O)[C@H](C)[C@H]2NC(=O)O[C@@]21C | 8 (≈ 9.23 µM) | 1 (≈ 1.15 µM) | 1 | 0.5 (≈ 0.577 µM) | 0.5 (≈ 0.577 µM) | 0.06 (≈ 0.0692 µM) | 0.5 (≈ 0.577 µM) | – | – |
| CC[C@H]1OC(=O)[C@H](C)C(=O)[C@H](C)[C@@H](O[C@@H]2O[C@H](C)C[C@H](N(C)C)[C@H]2O)[C@](C)(OC(=O)NN(CC)CCc2ccc(-c3ncccn3)cc2)C[C@@H](C)C(=O)[C@H](C)[C@H]2NC(=O)O[C@@]21C | 8 (≈ 9.23 µM) | 0.5 (≈ 0.577 µM) | 2 | 0.25 (≈ 0.288 µM) | 0.12 (≈ 0.138 µM) | 0.12 (≈ 0.138 µM) | 0.25 (≈ 0.288 µM) | – | – |
| CC[C@H]1OC(=O)[C@H](C)C(=O)[C@H](C)[C@@H](O[C@@H]2O[C@H](C)C[C@H](N(C)C)[C@H]2O)[C@](C)(OC(=O)NN(C)C/C=C/c2ccc(-c3ncccn3)cc2)C[C@@H](C)C(=O)[C@H](C)[C@H]2NC(=O)O[C@@]21C | 8 (≈ 9.25 µM) | 0.5 (≈ 0.578 µM) | 0.5 | 0.25 (≈ 0.289 µM) | 0.25 (≈ 0.289 µM) | 0.03 (≈ 0.0347 µM) | 0.5 (≈ 0.578 µM) | – | – |
| CC[C@H]1OC(=O)[C@H](C)C(=O)[C@H](C)[C@@H](O[C@@H]2O[C@H](C)C[C@H](N(C)C)[C@H]2O)[C@](C)(OC(=O)NN(C)CCc2ccc(-c3ncccn3)cc2F)C[C@@H](C)C(=O)[C@H](C)[C@H]2NC(=O)O[C@@]21C | 4 (≈ 4.59 µM) | 0.5 (≈ 0.574 µM) | 1 | 0.5 (≈ 0.574 µM) | 0.06 (≈ 0.0689 µM) | 0.06 (≈ 0.0689 µM) | 0.25 (≈ 0.287 µM) | > 20 | 2.3 |
